Assay results taken from paper PMC7370299, “Inhibition of Ovarian Cancer Cell Spheroid Formation by Synthetic Peptides Derived from Nectin-4” (International Journal of Molecular Sciences, 2020).

Experiments:
NIH:OVCAR5 cells [1] = experiment: Initial screening of Nectin-4 peptides for spheroid formation, flat-bottom ultra-low attachment plates, manual photographs; format: cell-based, human; conditions: peptide 150 µg/mL, 96-well flat-bottom ultra-low attachment plates, photographed at 24 and 48 h, 8 technical replicates, data not shown
Protocol: Twenty-one peptides of 14 amino acids in length encompassing the extracellular domain of Nectin-4 (Figure 2 and Table 1) were synthesized as previously described. The peptides were initially screened at a concentration of 150 µg/mL in 96-well flat-bottom ultra-low attachment plates to identify the section(s) of Nectin-4 that are active in ovarian cancer cell aggregation and spheroid formation. NIH:OVCAR5 cells and peptides were seeded into the plates and manually photographed at 24 and 48 h time points. […] However, the cells treated with the other 18 peptides produced spheroids that appeared to be similar in size to the untreated control cells.
For the initial screening of the twenty-one Nectin-4 peptides, 50 ul of the peptides at 300 µg/mL (for a final working concentration of 150 µg/mL peptide per well) in complete media were added to 96-well flat-bottom ultra-low attachment plates (Corning, Corning, NY, USA). DMSO was used as a negative control. Fifty microliters of NIH:OVCAR5 cells at a concentration of 1.0 × 10^5 cells/mL in complete media were added to each well. The plates were then incubated at 37 °C in 5% CO2 for 48 h, with photographs taken manually at 24 and 48 h on a Nikon® TE200 microscope. A single screening experiment was conducted with 8 technical replicates at each condition to determine which peptides had the most significant effect on spheroid formation.

NIH:OVCAR5 cells [2] = experiment: Real-time spheroid formation, round-bottom ultra-low attachment plates, IncuCyte Zoom time-lapse, CellProfiler area; format: cell-based, human; conditions: for effect on spheroid formation (spheroid size, time-lapse): 96-well round-bottom ultra-low attachment plates, IncuCyte Zoom, first 24 h, DMSO control; for inhibition of spheroid formation at 18 µg/mL: peptide 18 µg/mL; for spheroid contraction / compact spheroid formation, average spheroid area over time: quadruplicate; for cell-cell adhesion at early time points of spheroid formation: before ~6 h, time-lapse imaging
Protocol: (§1) Confluent monolayers of ovarian cancer cell lines (NIH:OVCAR5, N4-KD-VB9, or CAOV3) were detached from the tissue culture flasks using 0.05% Trypsin (ThermoFisher Scientific, Waltham, MA, USA) and resuspended at a concentration of 1.0 × 10^5 cells/mL in complete media. Each well of a 96-well round-bottom ultra-low attachment plate (Corning, Corning NY, USA) was seeded with 50 ul of the resulting suspension. In most cases, the experiments were conducted with eight technical replicates at each condition. The plates were then placed in the gantry of the IncuCyte® Zoom (Sartorius, Ann Arbor, MI, USA) live cell analysis system and incubated at 37 °C in 5% CO2 for 24–72 h, as indicated. Photographs were taken at ~15 min increments for a total of no less than 48 h for the NIH:OVCAR5 cell lines or up to 72 h for the CAOV3 cell line. The initial photographs (t = 0) were taken 10–25 min after the cells were plated, at which time the cells had gravitated to the bottom of the well and were initiating the cell–cell attachments. The resulting footage was analyzed to determine the change in the area of the spheroid aggregates over time. The images were binarized to black and white, and the sum of the area of the small aggregates (black objects) in pixels was determined via the CellProfiler^TM workflow described below. Each image was normalized to the same dimensions, so that the areas could be compared.
Experiments were then repeated using round-bottom ultra-low attachment plates in which the cells were added to the wells containing the peptides at a final concentration of 150 µg/mL. The plates were placed in the IncuCyte® Zoom instrument for 24-48 h of live cell imaging, as described above. Experiments with the peptides selected for further study were performed in triplicate, with 8–16 technical replicates at each treatment condition.
NIH:OVCAR5 cells were added to wells containing from 9 to 150 µg/mL of peptide N4-P10 or peptide N4-P10S, or DMSO control, and then the formation of spheroids was monitored via the IncuCyte® Zoom instrument. The resulting footage was analyzed with the CellProfiler^TM pipeline described below.
A simple four-step CellProfiler™ (open source, Broad Institute, www.cellprofiler.org) pipeline was used to delineate the biologically relevant image contents and to quantify the area of spheroids over time. As part of the CellProfiler™ workflow, cellular edges were enhanced using the Sobel method, the images were converted to binary via Otsu method thresholding, and the area of occupied pixels as a function of overall image size was recorded. The resulting values were exported for analysis and visualization in the R statistical programming language. The values were averaged and the mean with the standard error of the mean (SEM) was determined and graphed. Experiments were routinely performed with eight replicates for each condition, and repeated a minimum of two times on separate days. Since many photographs were taken during the course of each experiment (approximately every 15 min) and the SEM was very small, it is difficult to see the small error bars in the graphs. For this reason, the values for each experimental SEM were included in the figure legends.

recombinant Nectin-1 = conditions: ovarian cancer cell adhesion to recombinant Nectin-1, short-term binding assay, previous study ref 15; cited from earlier work
Excerpt: In our previous study, peptides N4-P10 and N4-P22 both inhibited cell adhesion by approximately 50%; however, the inhibition of spheroid formation by these two peptides was more disparate, with peptide N4-P10 almost completely inhibiting spheroid formation. In contrast, ...

NIH:OVCAR5 cells [3] = conditions: 150 µg/mL peptide N4-P10 or 2 µg/mL puromycin, 250 nM Cytotox Green, 72 h, quadruplicate
Protocol: As a positive control for cytotoxicity, 2 µg/mL puromycin was used.

CAOV3 cells = experiment: Real-time spheroid formation, round-bottom ultra-low attachment plates, IncuCyte Zoom time-lapse, CellProfiler area; format: cell-based, human; conditions: peptide 150 µg/mL; for effect on spheroid formation of CAOV3 cells: round-bottom ultra-low attachment plates, 72 h, quadruplicate, DMSO control
Protocol: as §1
A simple four-step CellProfiler™ (open source, Broad Institute, www.cellprofiler.org) pipeline was used to delineate the biologically relevant image contents and to quantify the area of spheroids over time. As part of the CellProfiler™ workflow, cellular edges were enhanced using the Sobel method, the images were converted to binary via Otsu method thresholding, and the area of occupied pixels as a function of overall image size was recorded. The resulting values were exported for analysis and visualization in the R statistical programming language. The values were averaged and the mean with the standard error of the mean (SEM) was determined and graphed. […]

[4] = peptide 150 µg/mL, 24 h, versus DMSO control

For “SGKQVDLVSASV [N4-P27, Nectin-4 peptide, AA 339-350, adjacent to membrane]”, the “effect on formation of spheroids (initial screen)” value (“effect on formation of spheroids” for short) (NIH:OVCAR5 cells [1]) was “significantly impeded the formation of spheroids”, the “effect on spheroid formation (spheroid size, time-lapse)” value (shortened to “effect … (spheroid size, time-lapse)”) (NIH:OVCAR5 cells [2]; peptide 150 µg/mL) was “significant impact on the formation of spheroids” and the “inhibition of spheroid formation compared to the control” value (NIH:OVCAR5 cells [2]; peptide 150 µg/mL, spheroid area at 24 h) was “almost forty percent”. The “inhibition of cell adhesion to Nectin-1” value (recombinant Nectin-1) was “did not inhibit ovarian cancer cell adhesion to recombinant Nectin-1”.

With “QARLRLRVLVPPLP [N4-P10, Nectin-4 extracellular domain peptide, AA 138-151]” the “effect on formation of spheroids” value (NIH:OVCAR5 cells [1]) was “significantly impeded the formation of spheroids”, the “cytotoxic effect (cell death, integrated fluorescence intensity)” value (NIH:OVCAR5 cells [3]) was “negligible” and the “inhibition of spheroid formation at 18 µg/mL” value (NIH:OVCAR5 cells [2]; 24 h, versus DMSO control) was “marginal effect of inhibiting spheroid formation”. For the same molecule, the “effect … (spheroid size, time-lapse)” value (NIH:OVCAR5 cells [2]; peptide 150 µg/mL) was “most dramatic effect on spheroid formation”, the “spheroid contraction / compact spheroid formation, average spheroid area over time” value (NIH:OVCAR5 cells [2]; [4]) was “did not form compact spheroids” and the “cell-cell adhesion at early time points of spheroid formation” value (NIH:OVCAR5 cells [2]; peptide 150 µg/mL) was “appeared to inhibit cell–cell adhesion”. For the same molecule, the “inhibition of spheroid formation at 37.5 to 150 µg/mL” value (NIH:OVCAR5 cells [2]; peptide 37.5 to 150 µg/mL, 24 h) was “almost complete inhibition of spheroid formation”, the “inhibition of cell adhesion to Nectin-1” value (recombinant Nectin-1) was “approximately 50%” and the “size / packing of CAOV3 multicellular aggregates” value (CAOV3 cells; after 72 h of incubation, CellProfiler area) was “not as tightly packed as the spheroids that were formed in the presence of peptide N4-P10S or the DMSO control”. The “effect on spheroid formation of CAOV3 cells” value (CAOV3 cells) was “inhibited the spheroid formation of CAOV3 cells”.

For COc1ccc(C[C@H](N)C(=O)N[C@H]2[C@@H](O)[C@H](n3cnc4c(N(C)C)ncnc43)O[C@@H]2CO)cc1 [puromycin, reference compound], the “cytotoxic effect (cell death, integrated fluorescence intensity)” value (NIH:OVCAR5 cells [3]) was “essentially all died within 24 h”.

For “RPVQLALPRLVRPL [N4-P10S, scrambled version of peptide N4-P10 used as a control peptide, reference compound]”, the “inhibition of spheroid formation at 18 µg/mL” value (NIH:OVCAR5 cells [2]; 24 h, versus DMSO control) was “no effect compared to the DMSO control”, the “spheroid contraction / compact spheroid formation, average spheroid area over time” value (NIH:OVCAR5 cells [2]; [4]) was “visually and quantitatively similar to that of the untreated controls” and the “change in formation of spheroids at any concentration” value (NIH:OVCAR5 cells [2]; peptide 9-150 µg/mL, 24 h, versus DMSO control) was “no quantifiable change in the formation of spheroids compared with the control”. For the same molecule, the “effect on spheroid formation of CAOV3 cells” value (CAOV3 cells) was “formed aggregates over 24 h that contracted into more compact spheroids after 72 h”.

For “WTRLDGPLPSGVRV [N4-P22, Nectin-4 extracellular domain peptide, AA 282-295]”, the “effect on formation of spheroids” value (NIH:OVCAR5 cells [1]) was “significantly impeded the formation of spheroids”, the “effect … (spheroid size, time-lapse)” value (NIH:OVCAR5 cells [2]; peptide 150 µg/mL) was “more modest inhibition of spheroid formation” and the “cell-cell adhesion at early time points of spheroid formation” value (NIH:OVCAR5 cells [2]; peptide 150 µg/mL) was “appeared to inhibit cell–cell adhesion”. The “inhibition of cell adhesion to Nectin-1” value (recombinant Nectin-1) was “approximately 50%”.

With “EVKGTTSSRSFKHS [N4-P14, Nectin-4 extracellular domain peptide, AA 186-199]” the “effect … (spheroid size, time-lapse)” value (NIH:OVCAR5 cells [2]; peptide 150 µg/mL) was “no effect on spheroid formation”.
